Test results published in patent publication US6458797B1, “Methods for remodeling neuronal and cardiovascular pathways” (Queen's University of Kingston, priority 1998, dated 2002).
One block for each molecule: values may come before it.

How the values were obtained:
[1] = tested on: spontaneously hypertensive rats (SHR); assay: Structurally-based vascular resistance in perfused vascular bed of SHR after 1 or 2 weeks of drug treatment; format: in vivo, rat; conditions: for Slope Flow Pressure: control 7.13 ± 0.63; for Maximum Constriction With Cocktail “Yield”: control 381 ± 21
Description: Penile perfusion preparations were made using the procedure established by Banting, J. D., et al., “Isolation and Perfusion of the Pudendal Vasculature in Male Rats. J Urol., 2: 587-590 (1995). A heated chamber served to maintain the ambient temperature and the entire preparation at 37-38° C. The perfusate was held in a reservoir and passed through a heating and a bubble trapping/mixing chamber connected to a single peristaltic pump (Minipuls 2 Pump, Gilson, Inc., 3000 W. Beltline Highway, Middleton, Wis. USA 53562). An injection port was located distal to the pump for the introduction of pharmacological agents to minimize dead volume. Drugs were administered via a Harvard Apparatus, Inc. infusion pump (Harvard Apparatus, Inc., 84 October Hill Road, Holliston, Mass. 01746). The perfusate was a Tyrode-dextran solution consisting of a mixture of 20 mg of KCI, 32.3mg of CaCl2.H2O, 5.1 mg of MgCl2.6H2O, 6.2 mg of NaH2PO4.2H2O, 155 mg of NaHCO3, 100 mg of glucose, and 800 mg of NaCl in each 100 mL of fluid. The solution was maintained at pH 7.4, and a temperature of 37-39° C., and oxygenated with 95% O2 and 5% CO2. The rats were anaesthetized (sodium pentobarbital 60 mg/kg body weight i.p.) and heparinized (1000 IU/kg, i.v.). The bilateral isolation of penile vasculature was achieved by ligating all of the branching arteries except for the pudendal; then the abdominal aorta was cannulated proximal to the iliac bifurcation with a single lumen catheter. The catheter was connected to the perfusion apparatus via a pressure transducer for arterial pressure recording. After sectioning the vena cava and spinal cord to remove venous resistance and to eliminate neural influences, a flow of perfusate (1 mL/min per kg body weight) through the abdominal cannula was initiated. The perfusion pressure was continuously recorded on a data acquisition system (MacLab, AD Instruments, Houston, Tex.). The perfusate was infused for twenty minutes to flush the penile vasculature of blood and obtain a stable pressure before the beginning of any experiment. Following this, sodium nitroprusside (20 μg/mL) was infused to induce maximum vasodilation. The flow rate-perfusion/pressure relationship was determined by measuring the pressure at minimum vascular resistance at flow rates of 0.5, 1.0, 2.0, 4.0 mL/min per kg of body weight. A cumulative α1-adrenoreceptor concentration-response curve to methoxamine (2.5, 5, 10, 25, 50 μg/mL was then generated. Each concentration of methoxamine was infused for a duration of 10 minutes, at which time a plateau was reached. Subsequently, a continuous injection of a cocktail containing a supramaximal concentration of vasoconstrictors (vasopressin, 20.5 μg/mL, angiotensin-II, 200 ng/mL; methoxamine, 64 μg/mL; Sigma, St. Louis, Mo., 63178) was given to ensure that maximum constrictor response that was not dependent upon the activation of a single receptor type was achieved. A second injection of the constrictor cocktail was administered to ensure the tissue “yield” was maximum constriction. […] At the end of the concentration-response relationship, the aorta was cut distal to the catheter, and a baseline flow-pressure curve was recorded again. This was done to ensure that pressure fell to zero and to account for any false pressure readings that may have resulted due to movement of the catheter during the experiment.
The hindlimb perfusion preparation was adopted from a technique originally designed by Folkow et al., Acta Physiol Scand., 80: 93-106 (1973), as modified by Adams et al., Hypertension, 14: 191-202 (1989). The perfusion experiment was performed as described above. Drugs were administered into the mixing chamber via a Harvard Apparatus infusion pump. The rats were anaesthetized (Inactin, 100 mg/kg of body weight, i.p.) and heparinized (1000 IU/kg of body weight, i.v.).

[2] = tested on: spontaneously hypertensive rats (SHR); assay: Left ventricle weight of SHR after 1 or 2 weeks of drug treatment; format: in vivo, rat; conditions: for Left Ventricle Weight (g)/Body Weight (kg) Ratio: control 2.46 ± 0.08
Description: Following this treatment, structurally-based resistance to blood flow in the perfused penile vascular bed and hindlimb vascular bed models were measured using the methods detailed above. […] The animal hearts were excised and weighed.

α1-adrenoreceptor [3] = assay: Hindlimb vascular bed perfusion, cumulative α1-adrenoreceptor concentration-response curve to methoxamine; design: species or system rat; conditions: mean ± SD
Description: Male spontaneously hypertensive (SH) rats weighing between 246-313 g, and normotensive Sprague-Dawley (SD) rats weighing between 246-440 g were obtained from Charles River Laboratories (Montreal, Quebec, Canada). The animals were maintained in individual cages with a 12 hour light/12 hour dark cycle, and a room temperature of 22-24° C. They were provided with standard rodent chow and tap water ad libitum and were acclimated to the room for at least two days before the experiments. All procedures were carried out in accordance with the guidelines set out by the Canadian Council on Animal Care. The hindlimb perfusion preparation was adopted from a technique originally designed by Folkow et al., Acta Physiol Scand., 80: 93-106 (1973), as modified by Adams et al., Hypertension, 14: 191-202 (1989). The perfusion experiment was performed as described above. Drugs were administered into the mixing chamber via a Harvard Apparatus infusion pump. […] Following a midline abdominal incision, the abdominal aorta was cannulated proximal to the iliac bifurcation with a double lumen catheter (Storz, St Louis, Mo., USA), and the catheter was extended down the right common iliac artery. One lumen of the catheter was connected to the perfusion apparatus, while the other was connected to a pressure transducer for arterial pressure recording. […] A cumulative α1-adrenoreceptor concentration-response curve to methoxamine (0.5, 1, 2, 4, 8, 16, 32, 64 μg/mL) was then generated. […] Subsequently, a bolus injection of a cocktail containing a supramaximal concentration of vasoconstrictors was given as above. At the end of the concentration-response relationship, the iliac artery was cut distal to the catheter, and the flow pressure curve was monitored again. Flow rates for the hindlimb perfusion experiments were determined based on expected flow rates of exercising skeletal muscle at maximum dilation. […] All values in the figures and tables were expressed as mean ± standard deviation. Results comparing penile and hindlimb vasculature were analyzed using the Student's t-test. […]

α1-adrenoreceptor [4] = assay: Penile vascular bed perfusion, cumulative α1-adrenoreceptor concentration-response curve to methoxamine; design: species or system rat; conditions: mean ± SD; for Slope Methoxamine: steepest slope of concentration-response curve
Description: Male spontaneously hypertensive (SH) rats weighing between 246-313 g, and normotensive Sprague-Dawley (SD) rats weighing between 246-440 g were obtained from Charles River Laboratories (Montreal, Quebec, Canada). The animals were maintained in individual cages with a 12 hour light/12 hour dark cycle, and a room temperature of 22-24° C. They were provided with standard rodent chow and tap water ad libitum and were acclimated to the room for at least two days before the experiments. All procedures were carried out in accordance with the guidelines set out by the Canadian Council on Animal Care.
Penile perfusion preparations were made using the procedure established by Banting, J. D., et al., “Isolation and Perfusion of the Pudendal Vasculature in Male Rats. J Urol., 2: 587-590 (1995). A heated chamber served to maintain the ambient temperature and the entire preparation at 37-38° C. The perfusate was held in a reservoir and passed through a heating and a bubble trapping/mixing chamber connected to a single peristaltic pump (Minipuls 2 Pump, Gilson, Inc., 3000 W. Beltline Highway, Middleton, Wis. USA 53562). An injection port was located distal to the pump for the introduction of pharmacological agents to minimize dead volume. Drugs were administered via a Harvard Apparatus, Inc. infusion pump (Harvard Apparatus, Inc., 84 October Hill Road, Holliston, Mass. 01746). The perfusate was a Tyrode-dextran solution consisting of a mixture of 20 mg of KCI, 32.3mg of CaCl2.H2O, 5.1 mg of MgCl2.6H2O, 6.2 mg of NaH2PO4.2H2O, 155 mg of NaHCO3, 100 mg of glucose, and 800 mg of NaCl in each 100 mL of fluid. The solution was maintained at pH 7.4, and a temperature of 37-39° C., and oxygenated with 95% O2 and 5% CO2. The rats were anaesthetized (sodium pentobarbital 60 mg/kg body weight i.p.) and heparinized (1000 IU/kg, i.v.). The bilateral isolation of penile vasculature was achieved by ligating all of the branching arteries except for the pudendal; then the abdominal aorta was cannulated proximal to the iliac bifurcation with a single lumen catheter. The catheter was connected to the perfusion apparatus via a pressure transducer for arterial pressure recording. […] The perfusion pressure was continuously recorded on a data acquisition system (MacLab, AD Instruments, Houston, Tex.). […] The flow rate-perfusion/pressure relationship was determined by measuring the pressure at minimum vascular resistance at flow rates of 0.5, 1.0, 2.0, 4.0 mL/min per kg of body weight. […] At the end of the concentration-response relationship, the aorta was cut distal to the catheter, and a baseline flow-pressure curve was recorded again. […]

[5] = SHR, enalapril 30 mg/kg per day, 2-week period of treatment, versus control
[6] = SHR-E1: enalapril 30 mg/kg per day, 1 week, n = 5
[7] = SHR-E2: enalapril 30 mg/kg per day, 2 weeks, n = 7
[8] = SHR-H: hydralazine 45 mg/kg per day, n = 7

Structure (SMILES): CCOC(=O)[C@H](CCc1ccccc1)N[C@@H](C)C(=O)N1CCC[C@H]1C(=O)O [enalapril]
decrease of “yield” value [1, 5]: 12.1%±6.0% | Slope Flow Pressure [1, 6]: 6.10 ± 1.5 | Maximum Constriction With Cocktail “Yield” [1, 6]: 358 ± 20 mm Hg | Slope Flow Pressure [1, 7]: 6.45 ± 1.31 | Maximum Constriction With Cocktail “Yield” ([1]; SHR-E2: enalapril 30 mg/kg per day, 2 weeks, n = 7, vasopressin, angiotensin-II, methoxamine cocktail): 335 ± 23 mm Hg | decrease of left ventricular mass [2, 5]: 13.6%±3.2% | Left Ventricle Weight (g)/Body Weight (kg) Ratio [2, 6]: 2.17 ± 0.05 g/kg | Left Ventricle Weight (g)/Body Weight (kg) Ratio [2, 7]: 2.13 ± 0.08 g/kg

Structure (SMILES): NNc1nncc2ccccc12 [hydralazine]
decrease of “yield” point ([1]; SHR, hydralazine 45 mg/kg per day, versus control): 7.3%±2.9% | Slope Flow Pressure [1, 8]: 6.63 ± 0.86 | Maximum Constriction With Cocktail “Yield” [1, 8]: 353 ± 11 mm Hg | decrease of left ventricular weight ([2]; SHR, hydralazine 45 mg/kg per day, versus control, no significant effect): 3.7%±5.0% | Left Ventricle Weight (g)/Body Weight (kg) Ratio [2, 8]: 2.37 ± 0.12 g/kg

Maximum Constriction With Methoxamine (α1-adrenoreceptor [3]; SD, methoxamine 64 μg/mL): 191 ± 55 mm Hg | Slope Methoxamine (α1-adrenoreceptor [3]; SD, steepest slope of concentration-response curve): 3.0±0.99 | Maximum Constriction With Methoxamine (α1-adrenoreceptor [3]; SHR, perfusion pressure at supramaximal methoxamine 64 μg/mL): 253±25 mm Hg | Maximum Constriction With Methoxamine (α1-adrenoreceptor [4]; SD (normotensive Sprague-Dawley), methoxamine 50 μg/mL): 171 ± 36 mm Hg | Slope Methoxamine (α1-adrenoreceptor [4]; SD): 2.03±0.68 | Maximum Constriction With Methoxamine (α1-adrenoreceptor [4]; SHR, perfusion pressure at supramaximal methoxamine 50 μg/mL): 172±32 mm Hg | Slope Methoxamine (α1-adrenoreceptor [4]; SHR): 1.64±0.21
Structure (SMILES): COc1ccc(OC)c(C(O)C(C)N)c1 (centres unmarked) [methoxamine]
